# Laboratory results as given in patent US12338263B2, “Antibacterial aminoglycoside derivatives” (priority 2019, dated 2025).
# Tests used:
# [1] = Evaluation of pharmacokinetics in rats; format: in vivo; conditions: rat, plasma, male SD rats, 150 mg/kg single intravenous drop infusion for 30 minutes
# Experimental: • 1) Experimental drug: Compound 1; • 2) Experimental animals: 3 male SD rats aged 7-9 weeks; • 3) Drug preparation: An appropriate amount of the drug was weighed and dissolved in saline to forma 60 mg/mL solution. Experimental Operation:
# Animals were administered the drug at a dose of 150 mg/kg and a concentration of 60 mg/mL by a single intravenous drop infusion via the tail vein for 30 minutes. Plasma samples were collected from the animals at 0, 0.0333, 0.0833, 0.25, 0.5, 1, 2, 4, 6, 8 and 24 hours after administration. The LC-MS/MS method was used to determine the drug concentration in the plasma sample, and the kinetic parameters of the tested drug are shown in Table 2: […]
# [2] = system: spiral ganglion neurons; test: Auditory safety: density of spiral ganglion neurons; format: in vivo, guinea pigs; conditions: guinea pig, in vivo, sc, 100 mg/kg
# Experimental: Healthy adult guinea pigs (150-250 g) were employed as the research objects, and were randomly divided into saline control group, gentamicin group, compound Plazomicin group and Compound 1 group, with 8 animals in each group. Subcutaneous administration is used, and the following assays were carried out during and after the administration for 14 consecutive days: • 1. To analyze the effects of different drugs on the auditory function of guinea pigs, the compound action potential (CAP) of animals was recorded on the 14th day (29th day, i.e., 4 weeks) after administration. The results obtained were analyzed and the changes of the threshold shift, amplitude, latency and other indicators among different treatment groups were compared. • 2. After the different groups of animals were processed and the auditory function data thereof were collected, the cochlea of the animals was taken out for fixation and staining. Surface preparation of basilar membrane of the cochlea on one side was performed to count the loss of hair cells so as to make a cochlea map, and the cochlea on the other side was decalcified and frozen sectioned. The density of spiral ganglion neurons was counted and compared among groups. Research Results: 1. Administration Method and Treatment
# Gentamicin from Dalian Meilun Biotechnology Co., Ltd., and Plazomicin and Compound 1 from WuXi AppTec (WuHan) Co., Ltd. are used, the solution of which were prepared just before use each time by using saline for dissolution to the concentration of 50 mg/mL, and the injection dose was 100 mg/kg body weight. Method: subcutaneous injection, and confirmation of no liquid leakage after each injection.
# The cochlea of the guinea pig was defined as Turn 1, Turn 2, Turn 3, and Turn 4 from the basal to the apical turn. The spiral ganglion neurons (SGNs) were stained with TuJ on frozen sections, and the density thereof in a specific area were counted and compared between groups. […] Through the two-way ANOVA, there was a significant difference between the groups, F(3, 74)=35.43, p<0.0001 (see FIG. 7).
# [3] = system: E. coli ATCC-25922 (Enterobacteria ATCC-25922); test: Drug efficacy in mice (mouse thigh muscle model); format: in vivo; conditions: CD-1 mice, 30 mpk subcutaneously 2 h and 10 h after infection, read at 24 h; FIG. 1
# Experimental: 12 female CD-1 mice were divided into 4 cages, 3 mice per cage, and were injected intraperitoneally with the immunosuppressant cyclophosphamide (150 mpk).
# 24 hours later, 4 cages of mice were injected intraperitoneally again with the immunosuppressant cyclophosphamide (100 mpk). The strain E. coli ATCC-25922 (Enterobacteria ATCC-25922) was recovered on a MHA plate. The recovered colonies were picked and dissolved in saline to prepare E. coli ATCC-25922 bacterial solution with a concentration of 1.00E+07 CFU/mL for later use in mouse thigh muscle infection. The amount of bacterial solution injected into the thigh muscle of experimental mice was […], that is, the inoculation amount was 1.00E+06 CFU/mouse. […]
# The specific administration of mice was as follows: • (1) 2 h after infection: At the end of 2 h infection, the thigh muscle tissue of the mice in the first cage was taken and placed in 10 mL saline, homogenized, and dotted on a plate with gradient dilution, two duplications for each mouse. The amount of bacteria loaded in the thigh muscle tissue of the mouse was counted. […] The amount of bacteria loaded in the thigh muscle tissue of the mouse was counted, and the experimental results were summarized and shown in FIG. 1.
structure (smiles),measurement,setting,value
CN[C@@H]1[C@@H](O)[C@@H](O[C@@H]2[C@@H](O)[C@H](O[C@H]3OC(CNCCOCCONC(=N)N)=CC[C@H]3N)[C@@H](N)C[C@H]2NC(=O)[C@@H](O)CCN)OC[C@]1(C)O [Compound 1],AUC,[1]; read-out: Area Under the Curve AUC,440 µM·h
same,clearance,[1]; read-out: Clearance Rate Cl,9.48 mL/min/kg
same,half-life,[1]; read-out: Half-Life T1/2 (converted),3.62 h
same,Cmax,[1]; read-out: Maximum Concentration Cmax,316 µM
same,Vd,[1]; read-out: Volume of Distribution Vd,1.5 L/kg
same,damage to spiral ganglion neurons (SGN density vs Control group),[2],no damage to spiral ganglion neurons
same,"in vivo efficacy (bacteria loaded in thigh muscle tissue), compared with Plazomicin",[3],better in vivo efficacy than Plazomicin
